Assay results from publication PMC7136958, “Targeting the pregnane X receptor using microbial metabolite mimicry” (EMBO Molecular Medicine, 2020).
Where “and” joins values, the source holds several entries; their conditions need not be identical. Equal entries are not always repeated.

Assays:
wild-type PXR.1 = molecular target: T1, wild-type PXR.1 (Homo sapiens, UniProt O75469); experiment: PXR luciferase reporter assay in HEK293T cells, wild-type PXR.1; format: cell-based; settings: 10 μM, replicate wells
T1 construct: expressed in transfected cells; host or cells: HEK293T
Experimental: After 24‐h transfection using Lipofectamine® LTX ([…] of plasmid), cells were exposed to FKK5 for 24 h. […] The data are expressed as mean ± SD RLU (relative light units from luciferase assay) normalized to β‐Gal activity in the same well. Differences were tested using 2‐way ANOVA with Tukey's multiple comparison test, and P < 0.05 was considered significant (*).

Cyp3a11 [1] = experiment: PXR target gene expression in pxr -/- mice after FKK6 gavage; format: in vivo, mouse; settings: pxr-/- (PXR knockout), mouse, oral, 500 μM, 5 doses (60 h), mean
Experimental: (§1) (Scheer et al, 2010) were administered 10% DMSO (n = 3) or FKK6 (n = 3) in 3 or 5 doses, with each dose interval of 12 h. Each gavage dose volume was 100 μl. 2–4 h after the dosing period, mice were sacrificed, and tissues were harvested for further analysis. The mouse studies were performed three independent times over an 18‐month period. All purchased mice were acclimatized in the Einstein vivarium for ~ 2 weeks before experiments started. […]. The room temperature was maintained at 25 ± 2°C with 55 ± 5% humidity. All studies were approved by the Institute of Animal Studies at the Albert Einstein College of Medicine, INC (IACUC # 20160706, 20160701 and preceding protocols), and specific animal protocols were also approved by additional protocols (IACUC# 20170406, 20170504) and Animal Care and Use Review Office (ACURO) of the US Army Medical Research and Materiel Command (PR160167, W81XWH‐17‐1‐0479). […]
(§2) Mouse small, large intestine and liver samples were collected and total RNAs were […]
(§3) isolated. […] Each tissue PCR was […]
(§4) repeated in quadruplicate. The expression was normalized to internal control, GAPDH. ( b,d) The histograms show mean (95 %CI) values, c, mean (SD) and two way ANOVA followed with Tukey's post hoc test. The entire experiment was repeated n = 3 for reproducibility. The data shown is one representative experiment .

mdr1 [2] = experiment: as above; format: in vivo, mouse; settings: pxr-/- (PXR knockout), mouse, oral, 500 μM, 5 doses (60 h), mean
Experimental: as §1, §2, §3, §4

pxr -/- mice [3] = experiment: as above; format: in vivo, mouse; settings: for Cyp3a11 fold expression / mdr1 fold expression: Fig 4e
Experimental: as §1, §2, §3, §4

Cyp3a11 [4] = experiment: PXR target gene expression in hPXR mice (mice expressing the human PXR gene) after FKK6 gavage; format: in vivo, mouse; settings: both sexes, C57BL/6-Nr1i2tm1(NR1I2)Arte (hPXR mice), mouse, 500 μM, 5 doses (60 h), individual mice
Experimental: as §1, §2, §3, §4

hPXR mice = experiment: as above; format: in vivo, mouse; settings: for mdr1 fold expression / Cyp3a11 fold expression: Fig 4f
Experimental: as §1, §2, §3, §4

mdr1 [5] = experiment: as above; format: in vivo, mouse; settings: both sexes, C57BL/6-Nr1i2tm1(NR1I2)Arte (hPXR mice), mouse, 500 μM, 5 doses (60 h), individual mice
Experimental: as §1, §2, §3, §4

pxr -/- mice [6] = experiment: DSS-induced acute colitis in pxr -/- mice; format: in vivo, mouse
Experimental: For these studies, 7‐ to 8‐week‐old female (DeVoss & Diehl, 2014) hPXR (mice expressing the human PXR gene) and pxr ^−/− mice (C57BL/6 background) were bred and each genotype was separated into two treatment groups using a random allocation method via coin toss—(i) n = 3 control (0.8% DMSO in 100 μl drinking water) and (ii) n = 3 FKK6 (200 μM (0.4 mg/kg/day) in 0.8% DMSO in 100 μl drinking water) administered once per day via oral gavage, and via intrarectal gavage for a total of 10 consecutive days The dose was chosen based on the extrapolation of the total dose delivered over 10 days to mice (~ 4 mg/kg), which is equivalent to that delivered to mice for determining target gene expression over 3–5 doses (3–5 mg/kg). […] Fecal pellets were collected prior to the initiation of the treatment protocol. All mice were starved overnight (12 h) to allow for smooth intrarectal delivery; however, the mice were allowed to feed ad libitum during the day. After 10 days, the mice were sacrificed and organs/tissues/feces harvested for further study. Prior to necropsy, mice were administered FITC‐dextran, and mouse serum was collected for the FITC‐dextran assay as previously described (Vetizou et al, 2015). The experimenter was not blinded to treatment allocation; however, the pathologist (KS) evaluating histologic scores was blinded to treatment allocation. […]

[7] = 500 μM, 5 doses (60 h), individual mice

T1 sequence (O75469 whole entry): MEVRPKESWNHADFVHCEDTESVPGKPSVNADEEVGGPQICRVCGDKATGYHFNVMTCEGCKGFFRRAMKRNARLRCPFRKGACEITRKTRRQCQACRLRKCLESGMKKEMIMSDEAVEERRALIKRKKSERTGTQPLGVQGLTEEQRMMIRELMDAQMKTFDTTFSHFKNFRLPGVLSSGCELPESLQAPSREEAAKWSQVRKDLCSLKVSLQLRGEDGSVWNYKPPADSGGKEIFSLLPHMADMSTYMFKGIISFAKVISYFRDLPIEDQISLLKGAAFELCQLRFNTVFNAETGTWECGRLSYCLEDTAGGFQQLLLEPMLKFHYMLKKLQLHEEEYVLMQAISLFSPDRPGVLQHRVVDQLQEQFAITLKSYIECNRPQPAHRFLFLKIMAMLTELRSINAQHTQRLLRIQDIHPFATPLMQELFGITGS

SMILES: C#CCC(O)(c1ccncc1)c1cc2ccccc2n1S(=O)(=O)c1ccccc1 (centres unmarked) [FKK6]
- PXR reporter activity, RLU/B-Gal (wild-type PXR.1): 49029.5 RLU/B-Gal and 34153.4 RLU/B-Gal and 41512.1 RLU/B-Gal and 34385.8 RLU/B-Gal
- fold induction at 60 h, 500 µM (Cyp3a11 [1]; large intestine, × DMSO, read-out: Cyp3a11 fold induction, Large Intestine): 0.36
- fold induction at 60 h, 500 µM (Cyp3a11 [1]; liver, read-out: Cyp3a11 fold induction, Liver): 1.54
- fold induction at 60 h, 500 µM (Cyp3a11 [1]; small intestine, × DMSO, read-out: Cyp3a11 fold induction, Small Intestine): 0.25
- fold induction at 60 h, 500 µM (mdr1 [2]; large intestine, read-out: mdr1 fold induction, Large Intestine): 0.71
- fold induction at 60 h, 500 µM (mdr1 [2]; liver, read-out: mdr1 fold induction, Liver): 1.22
- fold induction at 60 h, 500 µM (mdr1 [2]; small intestine, read-out: mdr1 fold induction, Small Intestine): 1.16
- PXR target gene (mdr1) expression across organs (pxr -/- mice [3]; 36 h and 60 h): no effect
- Cyp3a11 fold expression (pxr -/- mice [3]; Large Intestine): 0.69 fold and 0.64 fold and 0.66 fold
- mdr1 fold expression (pxr -/- mice [3]; Large Intestine): 0.87 fold and 0.67 fold and 0.93 fold
- Cyp3a11 fold expression (pxr -/- mice [3]; Liver): 0.84 fold and 1.18 fold and 1.42 fold
- Cyp3a11 fold expression (pxr -/- mice [3]; Small Intestine): 0.98 fold and 0.96 fold and 1.09 fold
- mdr1 fold expression (pxr -/- mice [3]; Small Intestine): 0.52 fold and 0.37 fold and 0.63 fold
- target gene expression levels (cyp3a11, mdr1) decrease vs DMSO (pxr -/- mice [3]; mouse, in vivo): ≤ 1.5 fold
- fold induction at 60 h, 500 µM (Cyp3a11 [4]; in vivo, read-out: Cyp3a11 fold induction, Liver): 1.81
- fold induction at 60 h, 500 µM (Cyp3a11 [4]; in vivo, read-out: Cyp3a11 fold induction, Small Intestine): 1.85
- fold induction at 60 h, 500 µM (Cyp3a11 [4]; large intestine, oral, read-out: Cyp3a11 fold induction, Large Intestine): 0.87
- fold induction at 60 h, 500 µM (Cyp3a11 [4]; liver, oral, read-out: Cyp3a11 fold induction, Liver): 0.75
- fold induction at 60 h, 500 µM (Cyp3a11 [4]; small intestine, oral, read-out: Cyp3a11 fold induction, Small Intestine): 0.85
- Cyp3a11 fold induction, Large Intestine (hPXR mice; [7]): 0.5 fold
- Cyp3a11 fold induction, Liver (hPXR mice; [7]): 0.51 fold
- Cyp3a11 fold induction, Small Intestine (hPXR mice; [7]): 0.81 fold
- mdr1 fold induction, Large Intestine (hPXR mice; [7]): 2.03 fold
- mdr1 fold induction, Liver (hPXR mice; [7]): distinct increase and 4.6 fold and 5.65 fold and 2.73 fold
- mdr1 fold induction, Small Intestine (hPXR mice; [7]): 1.7 fold and 2.02 fold
- mdr1 fold expression (hPXR mice; Large Intestine): 2.55 fold
- Cyp3a11 fold expression (hPXR mice; Liver): 2.01 fold and 1.78 fold and 1.23 fold
- mdr1 fold expression (hPXR mice; Liver): 0.93 fold and 1.05 fold and 1.28 fold
- Cyp3a11 fold expression (hPXR mice; Small Intestine): 3.71 fold and 3.81 fold and 4.42 fold
- mdr1 fold expression (hPXR mice; Small Intestine): 1.46 fold and 1.56 fold and 1.59 fold
- fold induction at 60 h, 500 µM (mdr1 [5]; in vivo, read-out: mdr1 fold induction, Large Intestine): 1.85
- fold induction at 60 h, 500 µM (mdr1 [5]; large intestine, oral, read-out: mdr1 fold induction, Large Intestine): 1.96
- fold induction at 60 h, 500 µM (mdr1 [5]; small intestine, oral, read-out: mdr1 fold induction, Small Intestine): 1.84
- weight loss, colon length, inflammation score, lipocalin 2, FITC-dextran levels (pxr -/- mice [6]; FKK6 200 μM, 10 days): did not alter
- % weight loss from baseline (day 10) (pxr -/- mice [6]; pxr -/- mice, DSS colitis, Fig 6a, individual values): 24% and 25% and 22%
